Reference: ChEMBL document CHEMBL1201862, “PubChem BioAssay data set” (2004)
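Briefly, cells in 96-well plates were exposed to five compound concentrations for 48 h, and endpoints were estimated by linear interpolation. Here, GI50 denotes the concentration required for 50% inhibition of growth.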 Calls of active or inactive are those of the source. No stated cut-off is given here; in the data, active = GI50 up to about 1.1 µM and inactive = higher.

Experiments:
Assay in all cases: NCI anticancer screen, dose series, 48 h
[1] = test system: HOP-92
[2] = test system: Hs-578T
[3] = test system: T47D
[4] = test system: MDA-N
[5] = test system: MDA-MB-231
[6] = test system: MDA-MB-435
[7] = test system: RXF 631

Measured: GI50

O=C1C=CC[C@H]2O[C@@H](COC(=O)Cc3ccccc3)C[C@H]2O1
inactive: [1] 28.1 µM | [2] 26.2 µM | [3] 58.1 µM | [4] 41 µM | [5] 63.7 µM | [6] 40.5 µM

O=C1c2cccc3c2C(=O)c2c(cccc21)OCCOCCOCCOCCO3
inactive: [7] 91.6 µM
